In patent US7026353B2, “Inhibition of Gram positive bacteria” (Unisearch Limited, A.C.N., priority 1998, dated 2006):

Tests used:
Enterococcus faecalis = assay: Screening against growth in NB, microplate reader, 24 hours; type: cell-based; conditions: 10 μg/ml, after 24 hr
Description: (§1) A screening of six different furanone compounds against growth of Staphylococcus aureus, Staphylococcus epidermidis. Streptococcus salivarius, Streptococcus pyogenes, Enterococcus faecalis and Micrococcus luteus was performed in) a BioRad 3550 Microplate Reader. Ten percent of overnight cultures were added to the growth media. NB containing furanones at the concentration 10 μg/ml. The bacteria were incubated at 37° C. and growth was measured at 595 nm for 24 hours.

Micrococcus luteus = assay: as above; type: cell-based; conditions: 10 μg/ml, after 24 hr
Description: as §1

Staphylococcus aureus [1] = assay: as above; type: cell-based; conditions: 10 μg/ml, after 24 hr
Description: as §1

[2] = test system: Staphylococcus epidermidis; assay: as above; type: cell-based; conditions: 10 μg/ml, after 24 hr
Description: as §1

Streptococcus pyogenes = assay: as above; type: cell-based; conditions: 10 μg/ml, after 24 hr
Description: as §1

Streptococcus salivarius = assay: as above; type: cell-based; conditions: 10 μg/ml, after 24 hr
Description: as §1

Staphylococcus aureus [3] = assay: Initial screening against growth in Nutrient Broth, microplate reader, 9 hours; type: cell-based; conditions: for % growth compared to the control value: after 9 hr
Description: (§2) All initial screening of six different furanones against growth of Staphylococcus aureus and Staphylococcus epidermidis was performed in a BioRad 3550 Microplate Reader. Ten percent (10%) of an overnight culture (10^8 cells/ml, resulting in final cell densities of 10^6 cells/ml) was added to the growth media. Nutrient Broth, containing furanones at the concentrations 10 and 1 μg/ml. The bacteria were incubated at 37° C. and growth was measured at […] for 9 hours. Cytotoxicity in mammalian systems was measured as inhibition of the growth of mouse fibroblast cells.

[4] = test system: Staphylococcus epidermidis; assay: as above; type: cell-based; conditions: for % growth compared to the control value: after 9 hr
Description: as §2

[5] = test system: mouse fibroblast cell line L292; assay: Cytotoxicity measured as inhibition of the growth of mouse fibroblast cells; type: cell-based; conditions: for Lowest concentration of furanones which significantly inhibited the growth of mouse fibroblast cell line: 30% depression of growth deemed significant
Description: as §2

S. aureus 015 = assay: Effect on the growth of ocular bacteria in TSB; type: cell-based; conditions: for Effect on growth curves: S. aureus strains, FIGS. 3 to 5
Description: (§3) Strains were cultured in 5 ml of TSB with or without SUs in 35° C. water bath with agitation (120 rpm). Growth rates were monitored by reading OD660nm at time intervals of 1, 2, 3, 4, 5, 7, and 24 hours.

S. epidermidis 017 = assay: Effect on the growth of ocular bacteria in TSB; type: cell-based; conditions: for Percentage growth compared to the control values: after 24 h, TSB; for Effect on growth curves: S. epidermidis strains, FIGS. 3 to 5
Description: as §3

Corynebacterium 003 = assay: Effect on the growth of ocular bacteria in TSB; type: cell-based, Corynebacterium sp; conditions: for Percentage growth compared to the control values: after 24 h, TSB
Description: as §3

| SMILES | % growth compared to the control value (Enterococcus faecalis) [%] | % growth compared to the control value (Micrococcus luteus) [%] | % growth compared to the control value (Staphylococcus aureus [1]) [%] | % growth compared to the control value [2] [%] | % growth compared to the control value (Streptococcus pyogenes) [%] | % growth compared to the control value (Streptococcus salivarius) [%] | % growth compared to the control value (Staphylococcus aureus [3]; 1 μg/ml) [%] | % growth compared to the control value (Staphylococcus aureus [3]; 10 μg/ml) [%] | % growth compared to the control value ([4]; 1 μg/ml) [%] | % growth compared to the control value ([4]; 10 μg/ml) [%] | Lowest concentration of furanones which significantly inhibited the growth of mouse fibroblast cell line [5] [µg/mL] | further results |
| --- | --- | --- | --- | --- | --- | --- | --- | --- | --- | --- | --- | --- |
| CCCC(F)C1=C(Br)/C(=C/Br)OC1=O (stereo not drawn) [Compound 45] | 85 | 100 | 4 | 22 | 26 | 69 | – | – | – | – | – | – |
| CCCC(OC(C)=O)C1=C(Br)C(=CBr)OC1=O (stereo not drawn) [Compound 4, reference compound] | 75 | 75 | 34 | 53 | 0 | 85 | 84.2 | 34.3 | 77.1 | 53.2 | 1 | Toxicity against mammalian cell lines [5]: quite toxic |
| O=C1C=C(Br)/C(=C/Br)O1 [Compound 30] | 54 | 86 | 0 | 62 | 50 | 73 | 56.6 | 0 | 72.1 | 62.2 | 20 | Inhibition of growth (Staphylococcus aureus [3]; 10 ug/ml): completely inhibiting growth; Inhibition of growth ([4]; 10 ug/ml): completely inhibiting growth; Percentage growth compared to the control values (S. aureus 015; 10 μg/ml, after 24 h, TSB): 97%; Effect on growth curves (S. aureus 015; 10 μg/ml): only slowed down the growth; Percentage growth compared to the control values (S. epidermidis 017; 10 μg/ml): 91%; Effect on growth curves (S. epidermidis 017; 10 μg/ml): only slowed down the growth; Effect on growth (Corynebacterium 003; 10 μg/ml): only slowed down the growth; Percentage growth compared to the control values (Corynebacterium 003; 10 μg/ml): 90%; Growth reached (Corynebacterium 003; 20 μg/ml (as printed in text), after 24 h incubation): 90% |
| CCCCC1=C(Br)C(=CBr)OC1=O [Compound 2] | 77 | 86 | 58 | 53 | 87 | 86 | 87.9 | 57.9 | 63.7 | 53.2 | 150 | Effect on growth curves (S. aureus 015; 100 μg/ml): inhibited the growth; Percentage growth compared to the control values (S. epidermidis 017; 100 μg/ml): 7%; Effect on growth curves (S. epidermidis 017; 100 μg/ml): inhibited the growth; Inhibition of growth (Corynebacterium 003; 100 μg/ml): approximately 86%; Percentage growth compared to the control values (Corynebacterium 003; 100 μg/ml): 14% |
